Experimental findings from PMC2783604 (Synapse (New York, N.Y.), 2009) are described below.

The structures appear in SMILES notation.

The Kd is the constant that tells how readily two partners part at equilibrium. Low readings indicate tighter binding, high ones weaker binding.

Assay [1] concerns the target dopamine D3 receptor (Macaca mulatta, UniProt F6U709). The assay can be described thus: radioligand saturation binding by quantitative autoradiography on brain sections.
Assay [2] addresses dopamine D3 receptor (rD3) (Rattus norvegicus, UniProt P19020). The assay can be described thus: radioligand saturation binding.
For assay [3], the target named is dopamine D3 receptor (hD3) (Homo sapiens, UniProt P35462). As to the kind of experiment: radioligand saturation binding.
dopamine D3 receptor (hD3), sequence (P35462 whole entry): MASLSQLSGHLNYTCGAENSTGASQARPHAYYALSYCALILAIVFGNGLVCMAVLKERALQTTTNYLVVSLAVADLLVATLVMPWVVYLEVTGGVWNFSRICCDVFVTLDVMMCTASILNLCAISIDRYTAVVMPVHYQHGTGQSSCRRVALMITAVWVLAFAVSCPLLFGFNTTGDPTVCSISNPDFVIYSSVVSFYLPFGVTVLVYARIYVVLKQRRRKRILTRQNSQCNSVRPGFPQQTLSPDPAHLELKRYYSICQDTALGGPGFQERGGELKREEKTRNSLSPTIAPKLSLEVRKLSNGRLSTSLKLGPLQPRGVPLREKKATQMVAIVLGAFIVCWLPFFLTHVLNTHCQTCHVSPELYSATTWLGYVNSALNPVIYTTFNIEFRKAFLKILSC

dopamine D3 receptor (rD3), sequence (P19020 whole entry): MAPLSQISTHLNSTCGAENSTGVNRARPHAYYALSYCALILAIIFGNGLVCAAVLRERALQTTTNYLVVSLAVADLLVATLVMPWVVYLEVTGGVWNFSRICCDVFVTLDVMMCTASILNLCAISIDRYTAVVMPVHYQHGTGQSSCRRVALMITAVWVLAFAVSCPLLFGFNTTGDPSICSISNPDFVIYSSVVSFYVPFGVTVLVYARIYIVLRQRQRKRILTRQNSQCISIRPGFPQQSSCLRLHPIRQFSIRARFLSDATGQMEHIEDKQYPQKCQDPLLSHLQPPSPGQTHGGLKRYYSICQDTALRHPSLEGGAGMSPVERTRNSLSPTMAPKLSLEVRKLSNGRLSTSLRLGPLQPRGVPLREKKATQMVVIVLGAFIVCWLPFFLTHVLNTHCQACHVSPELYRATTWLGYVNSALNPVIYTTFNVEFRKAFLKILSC
dopamine D3 receptor, sequence (F6U709 1-400): as the sequence (P35462 whole entry) above, with S3P, A17V, I101V, A151T, P247R, K281R counted along it

The compound `COc1ccccc1N1CCN(CCCCNC(=O)c2ccc(N(C)C)cc2)CC1` [WC-10, 4-(Dimethylamino)-N-(4-(4-(2-methoxyphenyl)piperazin-1-yl)butyl)benzamide] gave a Kd in assay [1] of 1.1 nM.

`CCN1CCC[C@H]1CNC(=O)c1c(O)c(Cl)cc(Cl)c1OC` [[^3H]raclopride]: the Kd is 17.1 ± 1.7 nM in assay [2] and 18 ± 1 nM in assay [3].
